{"source": "PubChem BioAssay (NCI)", "test_in_all_cases": "NCI anticancer screen, dose series, 48 h", "key": {"IGROV1 ovarian": {"system": "IGROV1 ovarian"}, "SNB-78 CNS": {"system": "SNB-78 CNS"}, "SF-295 CNS": {"system": "SF-295 CNS"}, "SK-MEL-28 melanoma": {"system": "SK-MEL-28 melanoma"}, "NCI-H460 lung": {"system": "NCI-H460 lung"}, "786-0 renal": {"system": "786-0 renal"}, "SF-539 CNS": {"system": "SF-539 CNS"}, "LXFL 529 NSCLC": {"system": "LXFL 529 NSCLC"}, "M19-MEL melanoma": {"system": "M19-MEL melanoma"}, "COLO 205 colon": {"system": "COLO 205 colon"}, "KM12 colon": {"system": "KM12 colon"}, "SW-620 colon": {"system": "SW-620 colon"}, "UACC-62 melanoma": {"system": "UACC-62 melanoma"}, "SN12C renal": {"system": "SN12C renal"}, "HOP-92 NSCLC": {"system": "HOP-92 NSCLC"}, "OVCAR-4 ovarian": {"system": "OVCAR-4 ovarian"}, "RXF 393 renal": {"system": "RXF 393 renal"}, "HL-60(TB) leukemia": {"system": "HL-60(TB) leukemia"}, "K-562 leukemia": {"system": "K-562 leukemia"}, "A549 NSCLC": {"system": "A549 NSCLC"}, "OVCAR-8 ovarian": {"system": "OVCAR-8 ovarian"}, "KM20L2 colon": {"system": "KM20L2 colon"}, "NCI-H226 lung": {"system": "NCI-H226 lung"}, "HCC-2998 colon": {"system": "HCC-2998 colon"}, "DMS 273 small cell lung": {"system": "DMS 273 small cell lung"}, "SK-MEL-5 melanoma": {"system": "SK-MEL-5 melanoma"}, "DLD-1 colon": {"system": "DLD-1 colon"}, "U251 CNS": {"system": "U251 CNS"}, "ACHN renal": {"system": "ACHN renal"}, "DMS 114 small cell lung": {"system": "DMS 114 small cell lung"}, "HT29 colon": {"system": "HT29 colon"}, "SR leukemia": {"system": "SR leukemia"}, "RPMI-8226 leukemia": {"system": "RPMI-8226 leukemia"}, "OVCAR-5 ovarian": {"system": "OVCAR-5 ovarian"}, "XF 498 CNS": {"system": "XF 498 CNS"}, "TK-10 renal": {"system": "TK-10 renal"}, "NCI-H23 lung": {"system": "NCI-H23 lung"}, "MALME-3M melanoma": {"system": "MALME-3M melanoma"}, "MOLT-4 leukemia": {"system": "MOLT-4 leukemia"}, "HOP-18 NSCLC": {"system": "HOP-18 NSCLC"}, "OVCAR-3 ovarian": {"system": "OVCAR-3 ovarian"}, "CCRF-CEM leukemia": {"system": "CCRF-CEM leukemia"}, "SNB-75 CNS": {"system": "SNB-75 CNS"}, "HCT-116 colon": {"system": "HCT-116 colon"}, "HOP-62 NSCLC": {"system": "HOP-62 NSCLC"}, "UO-31 renal": {"system": "UO-31 renal"}, "CAKI-1 renal": {"system": "CAKI-1 renal"}, "UACC-257 melanoma": {"system": "UACC-257 melanoma"}, "A498 renal": {"system": "A498 renal"}, "SF-268 CNS": {"system": "SF-268 CNS"}, "HCT-15 colon": {"system": "HCT-15 colon"}, "EKVX NSCLC": {"system": "EKVX NSCLC"}, "SK-MEL-2 melanoma": {"system": "SK-MEL-2 melanoma"}, "M14 melanoma": {"system": "M14 melanoma"}, "LOX IMVI melanoma": {"system": "LOX IMVI melanoma"}}, "note": "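Exposure lasted 48 hours, with cells grown in 96-well plates and compounds tested at five concentrations. Definition used: TGI = concentration required for complete inhibition of growth.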"}
{"molecule": "C/C(=N\\NC(=S)Nc1ccc(C(=O)O)cc1)c1ccccn1", "values": [{"measurement": "TGI", "setting": "IGROV1 ovarian", "result": 85.8, "unit": "µM"}, {"measurement": "TGI", "setting": "SNB-78 CNS", "result": "> 100", "unit": "µM"}, {"measurement": "TGI", "setting": "SF-295 CNS", "result": "> 100", "unit": "µM"}, {"measurement": "TGI", "setting": "SK-MEL-28 melanoma", "result": "> 100", "unit": "µM"}, {"measurement": "TGI", "setting": "NCI-H460 lung", "result": 50.2, "unit": "µM"}, {"measurement": "TGI", "setting": "786-0 renal", "result": 43.3, "unit": "µM"}, {"measurement": "TGI", "setting": "SF-539 CNS", "result": 40.3, "unit": "µM"}, {"measurement": "TGI", "setting": "LXFL 529 NSCLC", "result": "> 100", "unit": "µM"}, {"measurement": "TGI", "setting": "M19-MEL melanoma", "result": 49.7, "unit": "µM"}, {"measurement": "TGI", "setting": "COLO 205 colon", "result": 34.3, "unit": "µM"}, {"measurement": "TGI", "setting": "KM12 colon", "result": 68.9, "unit": "µM"}, {"measurement": "TGI", "setting": "SW-620 colon", "result": 39.1, "unit": "µM"}, {"measurement": "TGI", "setting": "UACC-62 melanoma", "result": 21.9, "unit": "µM"}, {"measurement": "TGI", "setting": "SN12C renal", "result": 35.8, "unit": "µM"}, {"measurement": "TGI", "setting": "HOP-92 NSCLC", "result": "> 100", "unit": "µM"}, {"measurement": "TGI", "setting": "OVCAR-4 ovarian", "result": 29.5, "unit": "µM"}, {"measurement": "TGI", "setting": "RXF 393 renal", "result": 74.4, "unit": "µM"}, {"measurement": "TGI", "setting": "HL-60(TB) leukemia", "result": 52.5, "unit": "µM"}, {"measurement": "TGI", "setting": "K-562 leukemia", "result": "> 100", "unit": "µM"}, {"measurement": "TGI", "setting": "A549 NSCLC", "result": "> 100", "unit": "µM"}, {"measurement": "TGI", "setting": "OVCAR-8 ovarian", "result": 45.5, "unit": "µM"}, {"measurement": "TGI", "setting": "KM20L2 colon", "result": 78.9, "unit": "µM"}, {"measurement": "TGI", "setting": "NCI-H226 lung", "result": 34.2, "unit": "µM"}, {"measurement": "TGI", "setting": "HCC-2998 colon", "result": 32.7, "unit": "µM"}, {"measurement": "TGI", "setting": "DMS 273 small cell lung", "result": 51.8, "unit": "µM"}, {"measurement": "TGI", "setting": "SK-MEL-5 melanoma", "result": 32.8, "unit": "µM"}, {"measurement": "TGI", "setting": "DLD-1 colon", "result": "> 100", "unit": "µM"}, {"measurement": "TGI", "setting": "U251 CNS", "result": 58.3, "unit": "µM"}, {"measurement": "TGI", "setting": "ACHN renal", "result": 30.4, "unit": "µM"}, {"measurement": "TGI", "setting": "DMS 114 small cell lung", "result": "> 100", "unit": "µM"}, {"measurement": "TGI", "setting": "HT29 colon", "result": "> 100", "unit": "µM"}, {"measurement": "TGI", "setting": "SR leukemia", "result": 56.3, "unit": "µM"}, {"measurement": "TGI", "setting": "RPMI-8226 leukemia", "result": 76.6, "unit": "µM"}, {"measurement": "TGI", "setting": "OVCAR-5 ovarian", "result": 60.7, "unit": "µM"}, {"measurement": "TGI", "setting": "XF 498 CNS", "result": 63.7, "unit": "µM"}, {"measurement": "TGI", "setting": "TK-10 renal", "result": "> 100", "unit": "µM"}, {"measurement": "TGI", "setting": "NCI-H23 lung", "result": 98.6, "unit": "µM"}, {"measurement": "TGI", "setting": "MALME-3M melanoma", "result": 35.1, "unit": "µM"}, {"measurement": "TGI", "setting": "MOLT-4 leukemia", "result": "> 100", "unit": "µM"}, {"measurement": "TGI", "setting": "HOP-18 NSCLC", "result": 97.5, "unit": "µM"}, {"measurement": "TGI", "setting": "OVCAR-3 ovarian", "result": 47.8, "unit": "µM"}, {"measurement": "TGI", "setting": "CCRF-CEM leukemia", "result": "> 100", "unit": "µM"}, {"measurement": "TGI", "setting": "SNB-75 CNS", "result": 40, "unit": "µM"}, {"measurement": "TGI", "setting": "HCT-116 colon", "result": 51.4, "unit": "µM"}, {"measurement": "TGI", "setting": "HOP-62 NSCLC", "result": "> 100", "unit": "µM"}, {"measurement": "TGI", "setting": "UO-31 renal", "result": 39.8, "unit": "µM"}, {"measurement": "TGI", "setting": "CAKI-1 renal", "result": 80.5, "unit": "µM"}, {"measurement": "TGI", "setting": "UACC-257 melanoma", "result": 62.1, "unit": "µM"}, {"measurement": "TGI", "setting": "A498 renal", "result": 50.7, "unit": "µM"}, {"measurement": "TGI", "setting": "SF-268 CNS", "result": "> 100", "unit": "µM"}, {"measurement": "TGI", "setting": "HCT-15 colon", "result": "> 100", "unit": "µM"}, {"measurement": "TGI", "setting": "EKVX NSCLC", "result": "> 100", "unit": "µM"}, {"measurement": "TGI", "setting": "SK-MEL-2 melanoma", "result": 35.4, "unit": "µM"}, {"measurement": "TGI", "setting": "M14 melanoma", "result": 28.7, "unit": "µM"}, {"measurement": "TGI", "setting": "LOX IMVI melanoma", "result": "> 100", "unit": "µM"}]}
